From patent US20220227796A1, “EGFR INHIBITORS, COMPOSITIONS AND METHODS THERE OF” (Betta Pharmaceuticals Co., Ltd., priority 2019, published 2022)
Structures can show the parent of a compound that is named as a salt. Where two headings read alike, the source gives them in different places.

What was measured:
H1975(L858R/T790M) = experiment: H1975 cells proliferation assay; format: cell-based; settings: for IC50: Homo sapiens, read-out: H1975 IC50
Protocol: (§1) Test 3 H1975 and HCC827 Cells Proliferation Assay
(§2) a) The medium was preheated in a 37° C. water bath in advance.
(§3) b) Remove the cryogenic vials from the liquid nitrogen tank, quickly put it into a 37° C. water bath, and completely melt it in 1 min.
(§4) c) Transfer the cell suspension to a 15 mL centrifuge tube containing 8 mL medium, centrifuge 1000 rpm, 5 min.
(§5) d) Discard the supernatant, resuspend the cells in 1 mL medium, and transfer to a 75 cm^2 flask containing 15 mL medium, culture the cells in an incubator at 37° C., 5% CO2.
(§6) b) Collect cell to a 15 mL centrifuged tube, centrifuge at 1000 rpm for 5 min. Discard the supernatant, count, and make the cell density at 1×10^4 cells/mL, then place it in a 37° C., 5% CO2 incubator.
(§7) b) The above compound solution was diluted 1:20 times with culture medium to prepare a 10 fold working solution;
(§8) a) Take cells in log phase growth, centrifuge at 1000 rpm for 5 min, then resuspend the cells with culture medium, then count cells;
(§9) b) Cells were seeded to 96-well cell culture plate with density at 2000 cells/well (suitable for H1975 cell) and at 2500 cells/well (suitable for HCC827 cell);
(§10) The blank control well was a culture medium (0.5% DMSO);
(§11) b) The cells were incubated for an additional 72 h in the incubator.
(§12) a) Remove the 96-well cell culture plate and add 50 μl of CTG reagent (CellTiter Glo kit, promega, Cat #G7573).
(§13) b) Plate was shaked for 2 min and then let it cool for 10 min at room temperature.
(§14) c) The Luminescence signal value was read using a PerkinElmer reader.
(§15) Experimental Data Analysis
(§16) Data were analyzed using GraphPad Prism 6.0 software to obtain a fitted curve of compound activity.
(§17) Y=Bottom+(Top−Bottom)/(1+10^((Log IC50−X)*HillSlope));
(§18) The cells proliferation assay results are expressed with IC50, shown as Table 2.

HCC827(Δ19del) = experiment: HCC827 cells proliferation assay; format: cell-based; settings: Homo sapiens, read-out: HCC827 IC50
Protocol: as §1, §2, §3, §4, §5, §6, §7, §8, §9, §10, §11, §12, §13, §14, §15, §16, §17, §18

EGFR T790M/L858R = EGFR T790M/L858R (Homo sapiens, UniProt P00533, L858R/T790M); experiment: Kinase assay (mobility shift) for EGFR T790M/L858R; format: biochemical
Protocol: (§19) Enzyme reaction protocol are as followed:
(§20) 1. Preparing 1* Kinase buffer as followed.
(§21) 2. Preparing Compound Concentration Gradient: Compounds were tested at a concentration of 300 nM, diluted to 100-fold final concentration in 100% DMSO solution in 96-well plates, and compounds were diluted 3 times with Precision, 10 concentrations. Each concentration of the compound was then further diluted to a 5-fold final concentration of the intermediate dilution solution using 1* Kinase buffer.
(§22) 3. 5 μL of each of the prepared intermediate dilution compounds was separately added to the compound wells of the 384-well plate, and each concentration was tested for duplicate wells; 5 μL of 5% DMSO was added to the negative control wells and the positive control wells, respectively.
(§23) 4. 2.5-fold final concentration of the kinase solution was prepared using 1*Kinase buffer.
(§24) 6. Centrifuge at 1000 rpm for 30 seconds, shake the reaction plate and incubate for 10 minutes at room temperature.
(§25) 8. 10 μL of a 2.5-fold final concentration of a mixed solution of ATP and a substrate was added to initiate the reaction.
(§26) 9. Centrifuge the 384-well plate at 1000 rpm for 30 seconds, mix by shaking, and incubate at room temperature for the corresponding time.
(§27) 10. Add 30 μL of the stop solution to stop the kinase reaction, centrifuge at 1000 rpm for 30 seconds, and mix by shaking.
(§28) 11. Read the conversion rate with Caliper EZ Reader.
(§29) Convert conversion values to inhibition values:
(§30) Percent inhibition=(max−conversion % sample)/(max−min)*100.
(§31) “max” stands for the mean value of the positive control well ratio; “min” stands for the mean value of the negative control well; conversion % sample: sample conversion reading.
(§32) Fit the data in log(inhibitor) vs. response Variable slope of GraphPad Prism 5 to obtain IC50 values.
(§33) Equation used is: Y=Bottom+(Top−Bottom)/(1+(IC50/X)*HillSlope)

EGFR Δ19del/T790M/C797S = EGFR Δ19del/T790M/C797S (Homo sapiens, UniProt P00533, T790M/C797S, form not given); experiment: Kinase assay (mobility shift) for EGFR Δ19del/T790M/C797S; format: biochemical; settings: read-out: EGFR Δ 19del/T790M/C797S IC50
Protocol: as §19, §20, §21, §22, §23, §24, §25, §26, §27, §28, §29, §30, §31, §32, §33

EGFR L858R = EGFR L858R (Homo sapiens, UniProt P00533, L858R); experiment: Kinase assay (mobility shift) for EGFR L858R; format: biochemical
Protocol: as §19, §20, §21, §22, §23, §24, §25, §26, §27, §28, §29, §30, §31, §32, §33

[1] = NCI-H1975, cell proliferation, 72 h, CellTiter Glo, class symbols
[2] = HCC827, cell proliferation, 72 h, CellTiter Glo, class symbols

Sequence of EGFR L858R (P00533 25-1210 L858R): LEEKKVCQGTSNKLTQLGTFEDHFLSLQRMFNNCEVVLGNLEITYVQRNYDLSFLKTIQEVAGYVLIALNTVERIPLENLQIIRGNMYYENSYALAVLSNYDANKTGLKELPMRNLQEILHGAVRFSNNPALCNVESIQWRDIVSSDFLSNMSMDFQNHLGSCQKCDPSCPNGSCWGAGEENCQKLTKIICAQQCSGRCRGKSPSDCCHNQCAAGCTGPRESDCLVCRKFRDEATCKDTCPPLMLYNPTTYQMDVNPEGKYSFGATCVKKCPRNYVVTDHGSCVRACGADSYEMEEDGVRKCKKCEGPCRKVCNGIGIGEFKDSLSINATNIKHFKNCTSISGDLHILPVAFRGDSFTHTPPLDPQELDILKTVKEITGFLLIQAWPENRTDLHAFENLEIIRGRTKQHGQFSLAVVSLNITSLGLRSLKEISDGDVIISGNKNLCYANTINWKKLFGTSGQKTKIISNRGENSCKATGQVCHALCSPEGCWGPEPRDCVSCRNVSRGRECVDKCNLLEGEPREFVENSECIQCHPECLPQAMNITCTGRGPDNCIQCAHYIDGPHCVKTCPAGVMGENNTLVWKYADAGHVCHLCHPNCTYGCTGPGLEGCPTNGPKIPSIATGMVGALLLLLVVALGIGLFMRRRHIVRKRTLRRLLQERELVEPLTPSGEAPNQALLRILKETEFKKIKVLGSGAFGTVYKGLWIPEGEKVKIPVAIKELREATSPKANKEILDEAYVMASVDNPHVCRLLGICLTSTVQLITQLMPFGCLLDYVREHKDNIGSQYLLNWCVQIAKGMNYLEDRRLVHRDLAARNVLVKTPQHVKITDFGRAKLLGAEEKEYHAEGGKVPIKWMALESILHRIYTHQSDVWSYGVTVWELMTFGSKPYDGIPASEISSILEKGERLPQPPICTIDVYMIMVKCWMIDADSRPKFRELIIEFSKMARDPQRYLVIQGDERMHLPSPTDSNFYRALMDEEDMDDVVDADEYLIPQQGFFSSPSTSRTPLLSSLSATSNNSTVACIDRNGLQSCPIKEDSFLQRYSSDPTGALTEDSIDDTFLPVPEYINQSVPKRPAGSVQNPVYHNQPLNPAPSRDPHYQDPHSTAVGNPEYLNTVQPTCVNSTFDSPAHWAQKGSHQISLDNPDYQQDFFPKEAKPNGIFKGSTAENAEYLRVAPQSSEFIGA
Sequence of EGFR Δ19del/T790M/C797S (P00533 with tags, fused parts or gaps DEL746-750/T790M/C797S, form open): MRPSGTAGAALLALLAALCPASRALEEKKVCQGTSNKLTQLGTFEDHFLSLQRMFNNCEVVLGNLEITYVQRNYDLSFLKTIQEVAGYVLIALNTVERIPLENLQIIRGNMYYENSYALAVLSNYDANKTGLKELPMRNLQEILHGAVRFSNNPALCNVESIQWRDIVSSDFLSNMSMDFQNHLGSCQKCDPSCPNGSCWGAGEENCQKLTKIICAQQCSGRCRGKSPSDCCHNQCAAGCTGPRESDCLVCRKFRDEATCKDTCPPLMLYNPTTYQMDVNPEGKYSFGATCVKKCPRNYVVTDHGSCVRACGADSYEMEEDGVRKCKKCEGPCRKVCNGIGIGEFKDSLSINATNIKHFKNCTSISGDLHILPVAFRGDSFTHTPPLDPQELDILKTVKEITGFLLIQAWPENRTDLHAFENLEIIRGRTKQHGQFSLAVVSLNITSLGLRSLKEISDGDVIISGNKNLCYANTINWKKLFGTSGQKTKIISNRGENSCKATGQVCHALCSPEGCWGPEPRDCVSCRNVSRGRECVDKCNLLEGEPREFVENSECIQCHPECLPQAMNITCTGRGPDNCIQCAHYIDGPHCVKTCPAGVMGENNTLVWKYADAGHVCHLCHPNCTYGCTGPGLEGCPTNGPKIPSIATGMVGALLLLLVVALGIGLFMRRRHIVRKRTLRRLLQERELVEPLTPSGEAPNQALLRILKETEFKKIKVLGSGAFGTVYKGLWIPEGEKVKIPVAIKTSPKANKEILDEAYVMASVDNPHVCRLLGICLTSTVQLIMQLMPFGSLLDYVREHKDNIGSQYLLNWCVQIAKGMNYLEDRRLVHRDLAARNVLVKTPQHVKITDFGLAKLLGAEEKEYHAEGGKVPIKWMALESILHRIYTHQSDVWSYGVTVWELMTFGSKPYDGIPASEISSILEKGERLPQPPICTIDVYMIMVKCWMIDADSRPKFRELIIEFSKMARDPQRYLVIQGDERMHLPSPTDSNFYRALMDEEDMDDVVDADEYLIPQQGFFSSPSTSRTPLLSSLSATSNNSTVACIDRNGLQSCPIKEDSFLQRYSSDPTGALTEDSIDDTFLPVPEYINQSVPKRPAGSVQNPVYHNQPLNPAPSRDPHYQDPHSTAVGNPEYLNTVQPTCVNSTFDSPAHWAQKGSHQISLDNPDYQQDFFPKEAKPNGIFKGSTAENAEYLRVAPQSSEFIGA
Sequence of EGFR T790M/L858R (P00533 25-1210 T790M/L858R): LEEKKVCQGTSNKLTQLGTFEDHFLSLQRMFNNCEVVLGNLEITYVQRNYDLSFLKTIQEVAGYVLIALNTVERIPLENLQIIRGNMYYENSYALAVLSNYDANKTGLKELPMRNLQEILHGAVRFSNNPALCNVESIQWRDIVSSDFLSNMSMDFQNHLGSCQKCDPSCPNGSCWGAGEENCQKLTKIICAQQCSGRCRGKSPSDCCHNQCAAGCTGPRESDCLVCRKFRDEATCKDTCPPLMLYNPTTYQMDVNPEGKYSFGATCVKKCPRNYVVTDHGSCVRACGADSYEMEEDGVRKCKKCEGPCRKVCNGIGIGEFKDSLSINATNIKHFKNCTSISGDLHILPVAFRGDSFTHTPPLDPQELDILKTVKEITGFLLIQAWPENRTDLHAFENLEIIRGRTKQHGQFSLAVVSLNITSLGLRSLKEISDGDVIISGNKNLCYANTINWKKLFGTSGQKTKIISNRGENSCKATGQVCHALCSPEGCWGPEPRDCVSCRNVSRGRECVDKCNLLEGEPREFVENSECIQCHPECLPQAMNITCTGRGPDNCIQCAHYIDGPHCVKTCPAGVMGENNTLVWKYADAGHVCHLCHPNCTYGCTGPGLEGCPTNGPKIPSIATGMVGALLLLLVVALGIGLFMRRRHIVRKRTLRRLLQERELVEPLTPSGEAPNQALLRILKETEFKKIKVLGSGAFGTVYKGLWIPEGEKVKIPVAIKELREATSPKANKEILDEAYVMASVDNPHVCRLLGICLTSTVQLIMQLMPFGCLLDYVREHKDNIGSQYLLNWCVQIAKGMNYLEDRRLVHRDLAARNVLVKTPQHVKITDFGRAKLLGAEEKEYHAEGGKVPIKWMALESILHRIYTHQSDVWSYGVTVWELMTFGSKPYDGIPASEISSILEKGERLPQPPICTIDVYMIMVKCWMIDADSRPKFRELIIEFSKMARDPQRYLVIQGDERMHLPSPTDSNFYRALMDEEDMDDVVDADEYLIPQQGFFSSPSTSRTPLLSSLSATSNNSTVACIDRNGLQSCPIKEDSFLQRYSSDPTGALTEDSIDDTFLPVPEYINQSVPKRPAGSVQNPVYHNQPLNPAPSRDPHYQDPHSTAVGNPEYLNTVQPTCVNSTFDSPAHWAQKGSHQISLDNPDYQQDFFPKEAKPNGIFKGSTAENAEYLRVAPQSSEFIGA

SMILES	IC50 (H1975(L858R/T790M); NCI-H1975, 72 h)	inhibition of double mutant (L858R/T790M) (H1975(L858R/T790M); summary in words of Table 2)	IC50 (HCC827(Δ19del); HCC827, 72 h)	IC50 (EGFR T790M/L858R)	IC50 (EGFR Δ19del/T790M/C797S)	IC50 (EGFR L858R)	IC50 (H1975(L858R/T790M); [1])	IC50 (HCC827(Δ19del); [2])
C=CC(=O)Nc1cc(Nc2nccc(-c3cn(C)c4ccccc34)n2)c(OC)cc1N(C)CCN(C)C [Comparative compound B, reference compound]	< 10 nM	higher inhibition	< 10 nM	–	–	–	–	–
C=CC(=O)Nc1cc(Nc2ncc(Cl)c(Nc3ccccc3P(C)(C)=O)n2)ccc1N1CC2(CCC(N(C)C)CC2)C1 [Compound 2, N-(5-((5-chloro-4-((2-(dimethylphosphoryl)phenyl)amino)pyrimidin-2-yl)amino)-2-(7-(dimethylamino)-2-azaspiro[3.5]nonan-2-yl)phenyl)acrylamide]	–	–	–	< 10 nM	< 10 nM	10 to 100 nM	–	–
C=CC(=O)Nc1cc(Nc2ncc(Cl)c(Nc3ccccc3P(C)(C)=O)n2)ccc1N1CC2(CC(N(C)C)C2)C1 [Compound 3, N-(5-((5-chloro-4-((2-(dimethylphosphoryl)phenyl)amino)pyrimidin-2-yl)amino)-2-(6-(dimethylamino)-2-azaspiro[3.3]heptan-2-yl)phenyl)acrylamide]	–	–	–	< 10 nM	< 10 nM	10 to 100 nM	–	–
C=CC(=O)Nc1cc(Nc2nccc(Nc3ccccc3P(C)(C)=O)n2)ccc1N1CCC2(CC1)CC(N(C)C)C2 [Compound 4, N-(2-(2-(dimethylamino)-7-azaspiro[3.5]nonan-7-yl)-5-((4-((2-(dimethylphosphoryl)phenyl)amino)pyrimidin-2-yl)amino)phenyl)acrylamide]	–	–	–	< 10 nM	< 10 nM	10 to 100 nM	–	–
C=CC(=O)Nc1cc(Nc2ncc(Cl)c(Nc3ccccc3P(C)(C)=O)n2)c(OC)cc1N1CCC2(CC1)CC(N(C)C)C2 [Compound 5, N-(5-((5-chloro-4-((2-(dimethylphosphoryl)phenyl)amino)pyrimidin-2-yl)amino)-2-(2-(dimethylamino)-7-azaspiro[3.5]nonan-7-yl)-4-methoxyphenyl)acrylamide]	–	–	–	< 10 nM	< 10 nM	10 to 100 nM	< 10 nM	10 to 50 nM
C=CC(=O)Nc1cc(Nc2ncc(Br)c(Nc3ccc4nccnc4c3P(C)(C)=O)n2)c(OC)cc1N1CCC(N2CCN(C)CC2)CC1 [Compound 13, N-(5-((5-bromo-4-((5-(dimethylphosphoryl)quinoxalin-6-yl)amino)pyrimidin-2-yl)amino)-4-methoxy-2-(4-(4-methylpiperazin-1-yl)piperidin-1-yl)phenyl)acrylamide]	–	–	–	–	–	–	10 to 50 nM	10 to 50 nM
C=CC(=O)Nc1cc(Nc2ncc(Cl)c(Nc3ccccc3P(C)(C)=O)n2)ccc1N1CCC2(CC1)CN(C)C2 [Compound 14, N-(5-((5-chloro-4-((2-(dimethylphosphoryl)phenyl)amino)pyrimidin-2-yl)amino)-2-(2-methyl-2,7-diazaspiro[3.5]nonan-7-yl)phenyl)acrylamide hydrochloric acid salt]	–	–	–	< 10 nM	< 10 nM	< 10 nM	10 to 50 nM	10 to 50 nM
C=CC(=O)Nc1cc(Nc2ncc(C)c(Nc3ccccc3P(C)(C)=O)n2)c(OC)cc1N1CCC(N2CCN(C)CC2)CC1 [Compound 22, N-(5-((4-((2-(dimethylphosphoryl)phenyl)amino)-5-methylpyrimidin-2-yl)amino)-4-methoxy-2-(4-(4-methylpiperazin-1-yl)piperidin-1-yl)phenyl)acrylamide]	–	–	–	< 10 nM	< 10 nM	10 to 100 nM	–	< 10 nM
C=CC(=O)Nc1cc(Nc2ncc(Cl)c(Nc3ccccc3P(C)(C)=O)n2)c(OC)cc1N1CCC(N2CCN(C)CC2)CC1 [Compound 24, N-(5-((5-chloro-4-((2-(dimethylphosphoryl)phenyl)amino)pyrimidin-2-yl)amino)-4-methoxy-2-(4-(4-methylpiperazin-1-yl)piperidin-1-yl)phenyl)acrylamide]	–	–	–	< 10 nM	< 10 nM	10 to 100 nM	–	10 to 50 nM
C=CC(=O)Nc1cc(Nc2ncc(Cl)c(Nc3ccccc3P(C)(C)=O)n2)c(OC)cc1N(C)CCN(C)C [Compound 25, N-(5-((5-chloro-4-((2-(dimethylphosphoryl)phenyl)amino)pyrimidin-2-yl)amino)-2-((2-(dimethylamino)ethyl)(methyl)amino)-4-methoxyphenyl)acrylamide]	–	–	–	–	–	–	–	< 10 nM
C=CC(=O)Nc1cc(Nc2ncc(Cl)c(Nc3ccccc3P(C)(C)=O)n2)c(OC)cc1N1CC2(CCC(N(C)C)CC2)C1 [Compound 26, N-(5-((5-chloro-4-((2-(dimethylphosphoryl)phenyl)amino)pyrimidin-2-yl)amino)-2-(7-(dimethylamino)-2-azaspiro[3.5]nonan-2-yl)-4-methoxyphenyl)acrylamide]	–	–	–	< 10 nM	< 10 nM	10 to 100 nM	–	–
C=CC(=O)Nc1cc(Nc2ncc(F)c(Nc3ccccc3P(C)(C)=O)n2)c(OC)cc1N(C)CCN(C)C [Compound 27, N-(2-((2-(dimethylamino)ethyl)(methyl)amino)-5-((4-((2-(dimethylphosphoryl)phenyl)amino)-5-fluoropyrimidin-2-yl)amino)-4-methoxyphenyl)acrylamide]	–	–	–	–	–	–	< 10 nM	< 10 nM
C=CC(=O)Nc1cc(Nc2ncc(F)c(Nc3ccccc3P(C)(C)=O)n2)c(OC)cc1N1CCC(N2CCN(C)CC2)CC1 [Compound 28, N-(5-((4-((2-(dimethylphosphoryl)phenyl)amino)-5-fluoropyrimidin-2-yl)amino)-4-methoxy-2-(4-(4-methylpiperazin-1-yl)piperidin-1-yl)phenyl)acrylamide]	–	–	–	10 to 100 nM	10 to 100 nM	10 to 100 nM	–	10 to 50 nM
C=CC(=O)Nc1cc(Nc2ncc(Cl)c(Nc3ccccc3P(C)(C)=O)n2)c(C)cc1N1CCC2(CC1)CC(N(C)C)C2 [Compound 31, N-(5-((5-chloro-4-((2-(dimethylphosphoryl)phenyl)amino)pyrimidin-2-yl)amino)-2-(2-(dimethylamino)-7-azaspiro[3.5]nonan-7-yl)-4-methylphenyl)acrylamide]	–	–	–	–	–	–	10 to 50 nM	10 to 50 nM
C=CC(=O)Nc1cc(Nc2nccc(Nc3ccccc3P(C)(C)=O)n2)ccc1N1CCC(N2CCN(C)CC2)CC1 [Compound 38, N-(5-((4-((2-(dimethylphosphoryl)phenyl)amino)pyrimidin-2-yl)amino)-2-(4-(4-methylpiperazin-1-yl)piperidin-1-yl)phenyl)acrylamide]	–	–	–	10 to 100 nM	10 to 100 nM	10 to 100 nM	–	–
C=CC(=O)Nc1cc(Nc2nccc(Nc3ccccc3P(C)(C)=O)n2)c(OC)cc1N(C)CCN(C)C [Compound 39, N-(2-((2-(dimethylamino)ethyl)(methyl)amino)-5-((4-((2-(dimethylphosphoryl)phenyl)amino)pyrimidin-2-yl)amino)-4-methoxyphenyl)acrylamide]	–	–	–	–	–	–	10 to 50 nM	< 10 nM
C=CC(=O)Nc1cc(Nc2nccc(Nc3ccccc3P(C)(C)=O)n2)c(OC)cc1N1CCC(N2CCN(C)CC2)CC1 [Compound 40, N-(5-((4-((2-(dimethylphosphoryl)phenyl)amino)pyrimidin-2-yl)amino)-4-methoxy-2-(4-(4-methylpiperazin-1-yl)piperidin-1-yl)phenyl)acrylamide]	–	–	–	10 to 100 nM	10 to 100 nM	10 to 100 nM	–	–
